Reference: US4767762A, “Tricyclic quinoline and naphthyride antibacterials” (Abbott Laboratories, priority 1986, dated 1988)
Values after ≈ are worked out from the molar mass of the structure shown.

What was measured:
Test in all cases: in vitro antibacterial activity (MIC), conventional agar dilution
Type in all cases: cell-based
Stap. epidermis 3519 = conditions: brain-heart infusion agar, inoculum 10^4 /plate
Method: (§1) The in vitro antibacterial activity is determined by conventional agar dilution procedures. A brain-heart infusion agar medium containing the drug is inoculated with a microbial culture cultivated on a brain-infusion broth (Difco 0037-01-6) at 36° C. for 18 hours and then observes for growth of the microorganism. The minimum concentration at which growth of the microorganism is inhibited is taken as MIC (ug/ml). The inoculum size is 10^4 /plate.

Stap. aureus ATCC-6538p = conditions: Staphylococcus aureus, ATCC6538P, brain-heart infusion agar, inoculum 10^4 /plate
Method: as §1

P. stuartii CMX 640 = conditions: Providencia stuartii, CMX640, brain-heart infusion agar, inoculum 10^4 /plate
Method: as §1

K. pneumoniae ATCC 8045 = conditions: Klebsiella pneumoniae, ATCC8045, brain-heart infusion agar, inoculum 10^4 /plate
Method: as §1

Strep. Pyogenes EES61 = conditions: Streptococcus pyogenes, brain-heart infusion agar, inoculum 10^4 /plate
Method: as §1

Ent. faecium ATCC 8043 = conditions: Enterococcus faecium, ATCC8043, brain-heart infusion agar, inoculum 10^4 /plate
Method: as §1

E. coli Juhl = conditions: Escherichia coli, brain-heart infusion agar, inoculum 10^4 /plate
Method: as §1

P. aeruginosa A5007 = conditions: Pseudomonas aeruginosa, brain-heart infusion agar, inoculum 10^4 /plate
Method: as §1

[1] = system: Ent. aerogenes ATCC 13048; conditions: Klebsiella aerogenes, ATCC13048, brain-heart infusion agar, inoculum 10^4 /plate
Method: as §1

Acinetobacter sp CMX 669 = conditions: CMX669, brain-heart infusion agar, inoculum 10^4 /plate
Method: as §1

Structure (SMILES) | MIC (Stap. epidermis 3519) | MIC (Stap. aureus ATCC-6538p) | MIC (P. stuartii CMX 640) | MIC (K. pneumoniae ATCC 8045) | MIC (Strep. Pyogenes EES61) | MIC (Ent. faecium ATCC 8043) | MIC (E. coli Juhl) | MIC (P. aeruginosa A5007) | MIC [1] | MIC (Acinetobacter sp CMX 669)
CN1CCN(c2cc3c(cc2F)c(=O)c2c(=O)[nH]sc2n3-c2ccc(F)cc2)CC1 [46(a), 9-p-fluorophenyl-6-fluoro-7-(4-methyl-1-piperazinyl)-2,3,4,9-tetrahydroisothiazolo[5,4-b]quinoline-3,4-dione] | 0.2 µg/mL (≈ 0.467 µM) | 0.01 µg/mL (≈ 0.0233 µM) | 12.5 µg/mL (≈ 29.2 µM) | 0.1 µg/mL (≈ 0.233 µM) | 1.56 µg/mL (≈ 3.64 µM) | 1.56 µg/mL (≈ 3.64 µM) | 0.2 µg/mL (≈ 0.467 µM) | 1.56 µg/mL (≈ 3.64 µM) | 0.39 µg/mL (≈ 0.91 µM) | 0.2 µg/mL (≈ 0.467 µM)
CC1CN(c2cc3c(cc2F)c(=O)c2c(=O)[nH]sc2n3-c2ccc(F)cc2)CCN1 (stereo not drawn) [46(b), 9-p-fluorophenyl-6-fluoro-7-(3-methyl-1-piperazinyl)-2,3,4,9-tetrahydroisothiazolo[5,4-b]quinoline-3,4-dione] | 0.2 µg/mL (≈ 0.467 µM) | 0.01 µg/mL (≈ 0.0233 µM) | 6.2 µg/mL (≈ 14.5 µM) | 0.01 µg/mL (≈ 0.0233 µM) | 0.78 µg/mL (≈ 1.82 µM) | 0.78 µg/mL (≈ 1.82 µM) | 0.05 µg/mL (≈ 0.117 µM) | 1.56 µg/mL (≈ 3.64 µM) | 0.02 µg/mL (≈ 0.0467 µM) | 0.1 µg/mL (≈ 0.233 µM)
CCn1c2cc(N3CCCC3)c(F)cc2c(=O)c2c(=O)[nH]sc21 [46(bbb), 9-ethyl-6-fluoro-7-(1-pyrrolidinyl)-2,3,4,9-tetrahydroisothiazolo[5,4-b]quinoline-3,4-dione] | 0.02 µg/mL (≈ 0.06 µM) | 0.01 µg/mL (≈ 0.03 µM) | > 100 µg/mL | 0.05 µg/mL (≈ 0.15 µM) | 1.56 µg/mL (≈ 4.68 µM) | 0.2 µg/mL (≈ 0.6 µM) | 0.05 µg/mL (≈ 0.15 µM) | 0.2 µg/mL (≈ 0.6 µM) | 0.2 µg/mL (≈ 0.6 µM) | 0.2 µg/mL (≈ 0.6 µM)
CCn1c2s[nH]c(=O)c2c(=O)c2cc(F)c(N3CCN(C)CC3)c(F)c21 [46(cc), 9-ethyl-6,8-difluoro-7-(4-methyl-1-piperazinyl)-2,3,4,9-tetrahydroisothiazolo[5,4-b]quinoline-3,4-dione] | 0.2 µg/mL (≈ 0.526 µM) | 0.1 µg/mL (≈ 0.263 µM) | 3.1 µg/mL (≈ 8.15 µM) | 0.05 µg/mL (≈ 0.131 µM) | 0.78 µg/mL (≈ 2.05 µM) | 0.39 µg/mL (≈ 1.03 µM) | 0.1 µg/mL (≈ 0.263 µM) | 3.1 µg/mL (≈ 8.15 µM) | 0.2 µg/mL (≈ 0.526 µM) | 0.1 µg/mL (≈ 0.263 µM)
CCn1c2s[nH]c(=O)c2c(=O)c2cc(F)c(N3CCNCC3)c(F)c21 [46(dd), 9-ethyl-6,8-difluoro-7-(piperazinyl)-2,3,4,9-tetrahydroisothiazolo[5,4-b]quinoline-3,4-dione] | 0.05 µg/mL (≈ 0.136 µM) | 0.05 µg/mL (≈ 0.136 µM) | 0.78 µg/mL (≈ 2.13 µM) | 0.05 µg/mL (≈ 0.136 µM) | 0.39 µg/mL (≈ 1.06 µM) | 0.2 µg/mL (≈ 0.546 µM) | 0.05 µg/mL (≈ 0.136 µM) | 0.78 µg/mL (≈ 2.13 µM) | 0.05 µg/mL (≈ 0.136 µM) | 0.2 µg/mL (≈ 0.546 µM)
CC1CN(c2cc3c(cc2F)c(=O)c2c(=O)[nH]sc2n3-c2ccc(F)cc2F)CC1N (stereo not drawn) [46(g), 9-o,p-difluorophenyl-6-fluoro-7-(3-amino-4-methyl-1-pyrrolidinyl)-2,3,4,9-tetrahydroisothiazolo[5,4-b]quinoline-3,4-dione] | 0.1 µg/mL (≈ 0.224 µM) | 0.05 µg/mL (≈ 0.112 µM) | 0.39 µg/mL (≈ 0.874 µM) | 0.1 µg/mL (≈ 0.224 µM) | 0.78 µg/mL (≈ 1.75 µM) | 0.2 µg/mL (≈ 0.448 µM) | 0.05 µg/mL (≈ 0.112 µM) | 0.78 µg/mL (≈ 1.75 µM) | 0.1 µg/mL (≈ 0.224 µM) | 0.1 µg/mL (≈ 0.224 µM)
CCn1c2cc(N3CCN(C)CC3)c(F)cc2c(=O)c2c(=O)[nH]sc21 [46(l), 9-ethyl-6-fluoro-7-(4-methyl-1-piperazinyl)-2,3,4,9-tetrahydroisothiazolo[5,4-b]quinoline-3,4-dione] | 0.1 µg/mL (≈ 0.276 µM) | 0.05 µg/mL (≈ 0.138 µM) | 1.56 µg/mL (≈ 4.3 µM) | 0.05 µg/mL (≈ 0.138 µM) | 0.39 µg/mL (≈ 1.08 µM) | 0.2 µg/mL (≈ 0.552 µM) | 0.05 µg/mL (≈ 0.138 µM) | 0.39 µg/mL (≈ 1.08 µM) | 0.1 µg/mL (≈ 0.276 µM) | 0.05 µg/mL (≈ 0.138 µM)
CCn1c2cc(N3CCNCC3)c(F)cc2c(=O)c2c(=O)[nH]sc21 [46(m), 9-ethyl-6-fluoro-7-(1-piperazinyl)-2,3,4,9-tetrhydroisothiazolo[5,4-b]quinoline-3,4-dione] | 0.2 µg/mL (≈ 0.574 µM) | 0.1 µg/mL (≈ 0.287 µM) | 0.39 µg/mL (≈ 1.12 µM) | 0.05 µg/mL (≈ 0.144 µM) | 0.2 µg/mL (≈ 0.574 µM) | 0.39 µg/mL (≈ 1.12 µM) | 0.1 µg/mL (≈ 0.287 µM) | 0.2 µg/mL (≈ 0.574 µM) | 0.2 µg/mL (≈ 0.574 µM) | 0.39 µg/mL (≈ 1.12 µM)
O=c1[nH]sc2c1c(=O)c1cc(F)c(N3CCC(O)C3)cc1n2C1CC1 (stereo not drawn) [46(ss), 9-cyclopropyl-6-fluoro-7-(3-hydroxy-1-pyrrolidinyl)-2,3,4,9-tetrahydroisothiazolo[5,4-b]quinoline-3,4-dione] | 0.01 µg/mL (≈ 0.0277 µM) | 0.005 µg/mL (≈ 0.0138 µM) | 0.78 µg/mL (≈ 2.16 µM) | ≤ 0.005 µg/mL | 0.39 µg/mL (≈ 1.08 µM) | 0.2 µg/mL (≈ 0.553 µM) | 0.02 µg/mL (≈ 0.0553 µM) | 0.39 µg/mL (≈ 1.08 µM) | 0.05 µg/mL (≈ 0.138 µM) | 0.02 µg/mL (≈ 0.0553 µM)
O=c1[nH]sc2c1c(=O)c1cc(F)c(N3CCNCC3)cc1n2C1CC1 [46(zz), 9-cyclopropyl-6-fluoro-7-(1-piperazinyl)-2,3,4,9-tetrahydroisothiazolo[5,4-b]quinoline-3,4-dione] | 0.05 µg/mL (≈ 0.139 µM) | 0.02 µg/mL (≈ 0.0555 µM) | 0.2 µg/mL (≈ 0.555 µM) | 0.005 µg/mL (≈ 0.0139 µM) | 0.05 µg/mL (≈ 0.139 µM) | 0.1 µg/mL (≈ 0.277 µM) | 0.005 µg/mL (≈ 0.0139 µM) | 0.05 µg/mL (≈ 0.139 µM) | 0.01 µg/mL (≈ 0.0277 µM) | 0.05 µg/mL (≈ 0.139 µM)

Results, then the compound that gave them:

MIC (Stap. epidermis 3519) | MIC (Stap. aureus ATCC-6538p) | MIC (P. stuartii CMX 640) | MIC (K. pneumoniae ATCC 8045) | MIC (Strep. Pyogenes EES61) | MIC (Ent. faecium ATCC 8043) | MIC (E. coli Juhl) | MIC (P. aeruginosa A5007) | MIC [1] | MIC (Acinetobacter sp CMX 669) | Structure (SMILES)
0.1 µg/mL (≈ 0.276 µM) | 0.05 µg/mL (≈ 0.138 µM) | 1.56 µg/mL (≈ 4.3 µM) | 0.2 µg/mL (≈ 0.552 µM) | 0.78 µg/mL (≈ 2.15 µM) | 0.78 µg/mL (≈ 2.15 µM) | 0.1 µg/mL (≈ 0.276 µM) | 0.39 µg/mL (≈ 1.08 µM) | 0.1 µg/mL (≈ 0.276 µM) | 0.2 µg/mL (≈ 0.552 µM) | CCn1c2cc(N3CCNC(C)C3)c(F)cc2c(=O)c2c(=O)[nH]sc21 (stereo not drawn) [46(ww), 9-ethyl-6-fluoro-7-(3-methyl-1-piperazinyl)-2,3,4,9-tetrahydroisothiazolo[5,4-b]quinoline-3,4-dione]
0.2 µg/mL (≈ 0.526 µM) | 0.1 µg/mL (≈ 0.263 µM) | 3.1 µg/mL (≈ 8.15 µM) | 0.005 µg/mL (≈ 0.0131 µM) | 0.39 µg/mL (≈ 1.03 µM) | 0.78 µg/mL (≈ 2.05 µM) | 0.05 µg/mL (≈ 0.131 µM) | 1.56 µg/mL (≈ 4.1 µM) | 0.1 µg/mL (≈ 0.263 µM) | 0.1 µg/mL (≈ 0.263 µM) | CCn1c2s[nH]c(=O)c2c(=O)c2cc(F)c(N3CCNC(C)C3)c(F)c21 (stereo not drawn) [46(xx), 9-ethyl-6,8-difluoro-7-(3-methyl-1-piperazinyl)-2,3,4,9-tetrahydroisothiazolo[5,4-b]quinoline-3,4-dione]
0.2 µg/mL (≈ 0.483 µM) | 0.1 µg/mL (≈ 0.241 µM) | 3.1 µg/mL (≈ 7.48 µM) | 0.02 µg/mL (≈ 0.0483 µM) | 0.78 µg/mL (≈ 1.88 µM) | 0.78 µg/mL (≈ 1.88 µM) | 0.05 µg/mL (≈ 0.121 µM) | 0.78 µg/mL (≈ 1.88 µM) | 0.1 µg/mL (≈ 0.241 µM) | 0.2 µg/mL (≈ 0.483 µM) | O=c1[nH]sc2c1c(=O)c1cc(F)c(N3CCNCC3)cc1n2-c1ccc(F)cc1 [46(yy), 9-p-fluorophenyl-6-fluoro-7-(1-piperozinyl)-2,3,4,9-tetrahydroisothiazolo[5,4-b]quinoline-3,4-dione]
0.05 µg/mL | 0.02 µg/mL | 0.39 µg/mL | 0.005 µg/mL | 0.05 µg/mL | 0.1 µg/mL | 0.05 µg/mL | 0.2 µg/mL | 0.01 µg/mL | 0.05 µg/mL | Cl.NC1CCN(c2cc3c(cc2F)c(=O)c2c(=O)[nH]sc2n3C2CC2)C1 (stereo not drawn) [47(b), 9-cyclopropyl-6-fluoro-7-(3-amino-1-pyrrolidinyl)-2,3,4,9-tetrahydroisothiazolo[5,4-b]quinoline-3,4-dione hydrochloride]
0.1 µg/mL (≈ 0.273 µM) | 0.05 µg/mL (≈ 0.136 µM) | 0.78 µg/mL (≈ 2.13 µM) | 0.01 µg/mL (≈ 0.0273 µM) | 0.78 µg/mL (≈ 2.13 µM) | 0.2 µg/mL (≈ 0.546 µM) | 0.01 µg/mL (≈ 0.0273 µM) | 0.78 µg/mL (≈ 2.13 µM) | 0.02 µg/mL (≈ 0.0546 µM) | 0.1 µg/mL (≈ 0.273 µM) | CCn1c2s[nH]c(=O)c2c(=O)c2cc(F)c(N3CCC(N)C3)c(F)c21 (stereo not drawn) [47(g), 9-ethyl-6,8-difluoro-7-(3-amino-1-pyrrolidinyl)-2,3,4,9-tetrahydroisothiazolo[5,4-b]quinoline-3,4-dione]
